In PMC13130965, “An Integrated Approach Combining Regulatory Tests in tg(cyp19a1b:GFP) Zebrafish Embryos to Assess Toxicity, Developmental Effects, and Estrogenic Activity of Chemicals: A Case Study with Bisphenol A Substitutes” (Environmental Science & Technology, 2026):
Converted amounts (≈) assume the structure as drawn. “And” between values parts separate entries of the source, which are not always exact repeats. Equal values may be shown once. Read-outs that look alike come from different tables or passages of the source.

Legend:
[1] = tested on: Zebrafish embryos ERE-GFP-Casper; parameters: method as in Green et al. (2016); settings: 120h exposure; ref Green et al. (2016); cited from earlier work
hERβ [2] = tested on: hERβ; parameters: method as in Grimaldi et al.; settings: HELN-hERβ; ref Grimaldi et al.; cited from earlier work
Zebrafish embryos = settings: cited from earlier work; for LC50: read-out: LC50(96h)
hERβ [3] = tested on: hERβ; parameters: method as in Pelch et al.; settings: HepG2-hERβ, ref Pelch et al., cited from earlier work
[4] = ref Adamovsky et al.; cited from earlier work
[5] = Refined Fish Embryo Acute Toxicity test (FET, OECD TG 236): mortality; assay type: in vivo, zebrafish (Danio rerio); settings: tg(cyp19a1b:GFP), zebrafish, in vivo, LC50 (96h) experimental (FET test), nominal, brackets 95% CI
Description: (§1) Exposures were carried out in presaturated 24-well plates containing one embryo per well in 2 mL of test solution. The exposure was performed under semistatic conditions, with daily renewal of the test solution. The concentration ranges tested, along with a control with the same percentage of solvent alone, are recapitulated in Table S1. All exposure concentrations are reported as nominal. During the time course of the refined FET tests, embryos were observed after 8 h (coagulation), 24 h (lack of somite formation and nondetachment of the tail), and 48, 72, and 96 h of exposure (nondetection of the heartbeat). […] Moreover, hatching rate and nonlethal developmental effects (i.e., yolk deformity, growth retardation, spontaneous movement, edema, blood tail circulation, heart rate, pigmentation, head and tail/spinal malformations, and hemorrhage) were monitored daily. Tail/spinal malformations included lordosis, kyphosis, scoliosis, and reduced tail length.
(§2) This analysis considered all nonlethal developmental end points monitored in the refined FET assay (see above), except effects on hatching, pigmentation, spontaneous movement, and blood circulation. A teratogenic index (TI) was then calculated as the ratio LC50/EC50.
Baseline toxicity and experimental FET LC50 values were used to calculate toxic ratios (TR = predicted baseline toxicity LC50/experimental FET LC50). Compounds with TR < 10 were considered as baseline toxicants.

zebrafish ERβ2 (zfERβ2) = zebrafish ERβ2 (zfERβ2) (Danio rerio, UniProt Q7ZU32); test: ZELH-zfERβ2 luciferase reporter gene assay; assay type: cell-based; settings: % of positive control E2 10 nM
zebrafish ERβ2 (zfERβ2), sequence (Q7ZU32 1-553): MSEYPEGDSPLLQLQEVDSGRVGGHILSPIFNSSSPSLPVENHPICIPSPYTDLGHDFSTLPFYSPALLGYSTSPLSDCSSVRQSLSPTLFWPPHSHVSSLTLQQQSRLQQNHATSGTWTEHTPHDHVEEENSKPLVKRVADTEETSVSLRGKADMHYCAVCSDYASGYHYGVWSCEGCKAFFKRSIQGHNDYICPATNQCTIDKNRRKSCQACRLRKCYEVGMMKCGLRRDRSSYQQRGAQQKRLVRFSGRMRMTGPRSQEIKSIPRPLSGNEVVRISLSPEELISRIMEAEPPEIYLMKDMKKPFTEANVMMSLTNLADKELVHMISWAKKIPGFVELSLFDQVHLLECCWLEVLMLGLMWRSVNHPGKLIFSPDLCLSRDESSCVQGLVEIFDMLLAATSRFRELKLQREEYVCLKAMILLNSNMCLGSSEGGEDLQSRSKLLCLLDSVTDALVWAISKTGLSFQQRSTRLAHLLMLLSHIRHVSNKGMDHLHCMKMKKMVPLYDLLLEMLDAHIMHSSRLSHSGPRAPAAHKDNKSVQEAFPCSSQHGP
Description: The ZELH-zfERs reporter cell line was previously established after a two-step stable transfection of the zebrafish hepatic cell line ZFL with the luciferase gene under the control of ERE (yielding the ZELH cell line that expresses no functional ER) and the zebrafish ER subtype β2 (yielding the ZELH-zfERβ2 cell line). Cells were cultured, exposed to chemicals for 72 h, and measured for luciferase activity exactly as previously described. , For each chemical, serial dilutions were prepared in DMSO and tested in three independent experiments. The final DMSO concentration in the culture medium was always 0.1% v/v. All tested concentrations refer to nominal concentrations.

[6] = tested on: tg(cyp19a1b:GFP) zebrafish embryos; test: Refined FET: developmental effects / malformations; assay type: in vivo, zebrafish (Danio rerio); settings: nominal
Description: as §1, §2

[7] = tested on: cyp19a1b:GFP (brain aromatase) in tg(cyp19a1b:GFP) zebrafish embryos; test: EASZY assay (OECD TG 250): GFP induction; assay type: in vivo, zebrafish (Danio rerio); settings: Danio rerio, 96 h
Description: The tests were conducted according to OECD TG 250. Newly fertilized cyp19a1b-GFP eggs were transferred to glass crystallizing dishes and exposed for 96 h in a humidified climate chamber (27 ± 2 °C) under semistatic conditions with a total renewal of the test solutions each day. Each condition consisted of three crystallizing dishes, each containing 7 embryos and 15 mL of test medium. Embryos were exposed to a range of nonlethal concentrations of chemicals as determined previously based on the refined FET assays. The tested concentration ranges of bisphenols, along with a control with the same percentage of solvent alone, are summarized in Table S2. All exposure concentrations are reported as nominal. At the end of exposure, transgenic zebrafish embryos were collected for fluorescence imaging to quantify GFP intensity. At the end of the experiments, all living zebrafish embryos were euthanized as described above. […] ICI was added together with bisphenols from 0 to 4 dpf (days post fertilization). […] In all coexposure experiments, the final DMSO concentration was 0.02% (v/v).
For fluorescence imaging, GFP fold induction was expressed as mean ± SEM, and values were compared to the DMSO control using one-way ANOVA followed by Dunnett’s posthoc test. […]

Adult Zebrafish = settings: ref Ren et al. (2017); cited from earlier work
Fathead minnow = settings: 4-days exposure, ref Corrales et al. (2017); cited from earlier work
[8] = 72h exposure, ref Duan et al. (2008)
[9] = 120h-exposure, ref Qiu et al. (2021)
[10] = 150h exposure, ref Song et al. (2014)
[11] = zebrafish embryos, ref Ren et al. (2017)

SMILES: CC(C)(c1ccc(O)cc1)c1ccc(O)cc1 [BPA, 4-[2-(4-hydroxyphenyl)propan-2-yl] phenol]
- EC50 [1]: 1.226 µg/mL (≈ 5.37 µM)
- LOEC [1]: 1000 µg/L and 4380.32 nM
- EC50 (hERβ [2]): 0.384 µM
- maximal efficacy (hERβ [2]): 66%
- mortality (Zebrafish embryos; 100 µM (23 mg/L) at 72h, ref Björnsdotter et al. (2017)): 100%
- mortality (Zebrafish embryos; 20 mg/L, 48h, ref Makarova et al. (2016)): 65%
- LC10(96h) (Zebrafish embryos; 4-days exposure, ref Blanc et al. (2019)): 6.62 µg/mL (≈ 29 µM)
- LC50(48h) (Zebrafish embryos; 4-days exposure, ref Tišler et al. (2016)): 15.9 (13.8-18.3) mg/L
- mortality (Zebrafish embryos; 5-15 µM, ref McCormick et al. (2010)): 4-8%
- LC50(24h) (Zebrafish embryos; [8]): 16.75 µg/mL (≈ 73.4 µM)
- NOEC (Zebrafish embryos; [8]): 2 mg/L
- LOEC (body length, GnRH3 neurons, reproductive neuroendocrine-related genes and hormones) (Zebrafish embryos; [9]): 100 µg/L
- NOEC (body length, GnRH3 neurons, reproductive neuroendocrine-related genes and hormones) (Zebrafish embryos; [9]): 1 µg/L
- LC50(144h) (Zebrafish embryos; [10]): 7.5 µg/mL (≈ 32.9 µM)
- LOAELs (Zebrafish embryos; [10]): 5 mg/L
- NOEC (developmental toxicity) (Zebrafish embryos; Wildtype (AB/TL), 1-6 dpf static + 6-9 dpf semistatic, ref Catron et al. (2018; 2019)): 11.5 µM
- LC50(96h) (Zebrafish embryos; Zebrafish, 4-days exposure, ref Corrales et al. (2017)): 12.8 µg/mL (≈ 56.1 µM)
- scoliosis (% of embryos) (Zebrafish embryos; at 8.041 mg/L, 2-5 dpf exposure, ref Martínez et al. (2019)): 16%
- mortality (Zebrafish embryos; at 25 mg/L, ref Duan et al. (2008)): 100%
- LC50 (Zebrafish embryos; 4-days exposure, ref Chow et al. (2013)): 35 µM
- LC50 (Zebrafish embryos; Wildtype AB, 96h-exposure, ref Arrokhman et al. (2023)): 57.1 µM
- delayed hatching EC50(96h) (Zebrafish embryos; ref Chow et al. (2013)): 5.25 µg/mL
- LC50(5dpf) (Zebrafish embryos; ref McCormick et al. (2011)): 5 (±0.89) mg/L
- LC50(28dpf) (Zebrafish embryos; ref McCormick et al. (2011)): 1.8 µg/mL (≈ 7.88 µM)
- LOAEL(5dpf) (Zebrafish embryos; ref McCormick et al. (2011)): 1 mg/L
- Edema EC50(48h) (Zebrafish embryos; ref Tišler et al. (2016)): 13.9 (8.5-22.8) mg/L
- Hatching inhibition EC50(72h) (Zebrafish embryos; ref Tišler et al. (2016)): 4.0 µg/mL
- Missing blood flow EC50(48h) (Zebrafish embryos; ref Tišler et al. (2016)): 12.3 µg/mL
- Pigmentation EC50(48h) (Zebrafish embryos; ref Tišler et al. (2016)): 3.6 (2.5-5.3) mg/L
- LC50 (96h) literature (Zebrafish embryos; zebrafish embryos, 95% CI, ref Chow et al.): 8.041 [7.846;8.24] mg/L
- LC50 (96h) literature (Zebrafish embryos; zebrafish embryos, 95% CI, ref Mu et al.): 10.4 [9.44–11.58] mg/L
- LC50 (96h) literature (Zebrafish embryos; zebrafish embryos, parentheses SEM, ref Moreman et al.): 12 (0.22) mg/L
- LC50 (96h) literature (Zebrafish embryos; zebrafish embryos, ref Arrokhman et al.): 13 mg/L (≈ 56.9 µM)
- LC50 (96h) literature (Zebrafish embryos; zebrafish embryos, ref Blanc et al.): 9.82 mg/L (≈ 43 µM)
- LC50 (96h) literature (Zebrafish embryos; zebrafish embryos, ref Gao et al.): 11.69 mg/L (≈ 51.2 µM)
- Body length LOEC (Zebrafish embryos; [11]): 4 mg/L
- Body length NOEC (Zebrafish embryos; [11]): 2 mg/L
- LC50 (96h) literature (Zebrafish embryos; zebrafish embryos, ref Ren et al.): 5.82 mg/L (≈ 25.5 µM)
- EC50 (hERβ [3]; NA = not active): 0.35 µM
- maximal efficacy (hERβ [3]): 97%
- Log Kow [4]: 3.32
- LC50 at 96 h [5]: 14.1 µg/mL (≈ 61.9 µM)
- maximal efficacy (zebrafish ERβ2 (zfERβ2)): 55%
- EC50 ([6]; Danio rerio, end of 96 h exposure, read-out: EC50 malformations (cumulative sublethal end points)): 6.06 µg/mL (≈ 26.5 µM)
- LOEC edema [6]: 10 mg/L
- LOEC growth retardation [6]: 20 mg/L
- LOEC heart rate disruption [6]: 20 mg/L
- LOEC hemorrhage [6]: 10 mg/L
- LOEC no spontaneous movement [6]: 10 mg/L
- LOEC no/Less pigmentation [6]: 10 mg/L
- LOEC tail/spinal malformations [6]: 10 mg/L
- LOEC deformity of yolk ([6]; at least 10% of embryos affected): 20 mg/L
- minimal effective concentration ([7]; read-out: EASZY LOEC (GFP induction), nominal): 0.625 µg/mL
- EC50 ([7]; read-out: EASZY relative EC50, nominal): 0.98 µg/mL (≈ 4.29 µM)
- LC50(24h) (Adult Zebrafish): 9.51 µg/mL (≈ 41.7 µM)
- LC50(48h) (Adult Zebrafish): 9.31 µg/mL (≈ 40.8 µM)
- LC50(72h) (Adult Zebrafish): 8.09 µg/mL (≈ 35.4 µM)
- LC50(96h) (Adult Zebrafish): 8.09 µg/mL (≈ 35.4 µM)
- LC50(96h) (Fathead minnow): 4.2 µg/mL (≈ 18.4 µM)
